According to article PMC11295495 (Neuropharmacology, 2023):
Read-outs that look alike come from different tables or passages of the source.

How the values were obtained:
[1] = target: T1, a9a10 nAChR (Homo sapiens, UniProt Q9GZZ6+Q9UGM1); test: two-electrode voltage-clamp in Xenopus oocytes, inhibition of […] ACh responses; assay type: cell-based
[2] = target: a9 nAChR (Homo sapiens, UniProt Q9UGM1); test: as above; assay type: cell-based
[3] = target: T1, a9a10 nAChR; test: as above; assay type: cell-based; remark: listed apart in the source
[4] = target: a7 nAChR (Homo sapiens, UniProt P36544); test: cell-based
a7 nAChR, sequence (P36544 23-502): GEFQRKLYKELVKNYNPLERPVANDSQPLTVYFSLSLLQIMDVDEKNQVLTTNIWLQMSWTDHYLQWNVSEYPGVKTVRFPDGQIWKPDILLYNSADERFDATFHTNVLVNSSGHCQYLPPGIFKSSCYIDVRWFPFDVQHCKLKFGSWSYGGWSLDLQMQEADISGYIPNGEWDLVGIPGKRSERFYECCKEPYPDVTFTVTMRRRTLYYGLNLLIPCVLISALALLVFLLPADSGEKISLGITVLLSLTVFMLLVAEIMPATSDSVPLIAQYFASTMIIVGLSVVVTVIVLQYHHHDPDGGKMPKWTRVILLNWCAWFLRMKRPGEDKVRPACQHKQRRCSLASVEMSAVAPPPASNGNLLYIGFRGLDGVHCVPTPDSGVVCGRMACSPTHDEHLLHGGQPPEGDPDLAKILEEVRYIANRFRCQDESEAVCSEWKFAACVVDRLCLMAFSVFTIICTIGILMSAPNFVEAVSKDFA

T1 sequence (Q9UGM1 23-479): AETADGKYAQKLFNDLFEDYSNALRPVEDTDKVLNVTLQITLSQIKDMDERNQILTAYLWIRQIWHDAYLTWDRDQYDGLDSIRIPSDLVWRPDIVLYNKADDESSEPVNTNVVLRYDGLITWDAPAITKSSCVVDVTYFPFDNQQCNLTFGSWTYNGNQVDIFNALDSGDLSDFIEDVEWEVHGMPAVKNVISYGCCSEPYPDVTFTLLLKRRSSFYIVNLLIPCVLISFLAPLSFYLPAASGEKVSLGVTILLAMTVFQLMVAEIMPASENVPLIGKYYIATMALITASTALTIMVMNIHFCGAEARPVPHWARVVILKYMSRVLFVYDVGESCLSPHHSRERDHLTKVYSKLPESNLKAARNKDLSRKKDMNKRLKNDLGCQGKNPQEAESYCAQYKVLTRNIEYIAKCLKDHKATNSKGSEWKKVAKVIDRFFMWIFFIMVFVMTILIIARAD
T1 sequence (Q9GZZ6 25-450): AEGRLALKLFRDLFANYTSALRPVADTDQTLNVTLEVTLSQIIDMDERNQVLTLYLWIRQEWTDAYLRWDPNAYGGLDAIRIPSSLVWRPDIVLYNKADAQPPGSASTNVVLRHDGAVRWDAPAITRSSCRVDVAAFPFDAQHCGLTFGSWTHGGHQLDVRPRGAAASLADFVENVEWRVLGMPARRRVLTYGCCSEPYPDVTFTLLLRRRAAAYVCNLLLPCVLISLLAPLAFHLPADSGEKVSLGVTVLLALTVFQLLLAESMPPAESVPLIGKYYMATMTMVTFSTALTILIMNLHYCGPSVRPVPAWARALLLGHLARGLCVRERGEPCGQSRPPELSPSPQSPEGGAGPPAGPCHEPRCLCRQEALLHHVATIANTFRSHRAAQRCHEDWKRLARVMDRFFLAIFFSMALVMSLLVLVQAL
a9 nAChR, sequence (Q9UGM1 23-479): as the sequence (Q9UGM1 23-479) above

| Structure (SMILES) | IC50 [1] | IC50 [2] | IC50 [3] | IC50 [4] |
| --- | --- | --- | --- | --- |
| CC[N+]1(CC)CCN(c2cccc(C#N)c2)CC1 [mCN-diEPP, 4-(3-cyanophenyl)-1,1-diethylpiperazin-1-ium] | 17.1 ± 1.54 µM |  |  |  |
| CCN1C[C@]2(COC(=O)c3ccccc3N3C(=O)C[C@H](C)C3=O)CC[C@H](OC)[C@@]34[C@@H]5C[C@H]6[C@H](OC)[C@@H]5[C@](O)(C[C@@H]6OC)[C@@](O)([C@@H](OC)[C@H]23)[C@@H]14 [methyllycaconitine] |  | 0.19 ± 0.02 µM | 0.24 ± 0.13 µM | 0.12 ± 0.05 µM |
| CN1CCC[C@H]1c1cccnc1 [nicotine] | 437 ± 73 µM |  |  |  |
